Data taken from patent publication US20260146035A1, “FUSED BICYCLIC COMPOUNDS AND THEIR USE AS MER AND AXL INHIBITORS” (DONG-A ST CO., LTD., priority 2022, published 2026).

Key:
human MER (528-end) = target: T1, human MER (528-end) (Homo sapiens, UniProt Q12866); assay: HTRF kinase activity biochemical assay, MER; details: 10 μM ATP, 30 minutes pre-incubation; read-out: HTRF MERTK IC50
T1 construct: human MER (528-end); purchased Camnabio, Japan
T1 sequence (Q12866 528-999 limits assumed): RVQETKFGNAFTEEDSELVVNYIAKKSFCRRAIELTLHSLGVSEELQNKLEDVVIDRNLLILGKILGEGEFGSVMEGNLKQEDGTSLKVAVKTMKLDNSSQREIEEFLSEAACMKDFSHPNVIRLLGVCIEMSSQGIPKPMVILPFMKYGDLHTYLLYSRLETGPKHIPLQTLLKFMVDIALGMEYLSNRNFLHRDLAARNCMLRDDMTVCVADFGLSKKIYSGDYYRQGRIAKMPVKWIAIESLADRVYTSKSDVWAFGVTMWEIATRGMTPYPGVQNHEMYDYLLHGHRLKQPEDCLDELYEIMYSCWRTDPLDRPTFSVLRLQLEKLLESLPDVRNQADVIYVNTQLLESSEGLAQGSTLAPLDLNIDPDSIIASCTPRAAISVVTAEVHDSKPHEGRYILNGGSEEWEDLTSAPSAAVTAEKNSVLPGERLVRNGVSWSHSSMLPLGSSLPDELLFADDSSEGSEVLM

human AXL (473-end) = target: T2, human AXL (473-end) (Homo sapiens, UniProt P30530); assay: HTRF kinase activity biochemical assay, AXL; details: 10 μM ATP, 30 minutes pre-incubation
T2 construct: human AXL (473-end); purchased SignalChem, Canada
T2 sequence (P30530 473-894 limits assumed): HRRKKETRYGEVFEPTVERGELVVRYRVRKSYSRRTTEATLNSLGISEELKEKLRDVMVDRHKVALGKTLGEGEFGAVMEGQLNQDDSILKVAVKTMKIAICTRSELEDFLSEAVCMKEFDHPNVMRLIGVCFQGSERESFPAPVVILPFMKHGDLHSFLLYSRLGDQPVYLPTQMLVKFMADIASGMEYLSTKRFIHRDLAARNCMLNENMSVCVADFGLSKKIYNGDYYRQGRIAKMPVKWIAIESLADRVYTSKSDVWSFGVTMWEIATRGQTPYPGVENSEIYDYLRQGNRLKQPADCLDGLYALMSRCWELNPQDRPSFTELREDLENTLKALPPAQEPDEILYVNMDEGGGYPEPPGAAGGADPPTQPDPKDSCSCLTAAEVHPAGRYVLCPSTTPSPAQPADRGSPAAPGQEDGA

human TYRO3 (455-end) = target: T3, human TYRO3 (455-end) (Homo sapiens, UniProt Q06418); assay: HTRF kinase activity biochemical assay, TYRO3; details: 10 μM ATP, 30 minutes pre-incubation; read-out: HTRF TYRO IC50
T3 construct: TYRO3 (455-end); purchased SignalChem, Canada
T3 sequence (Q06418 455-890 limits assumed): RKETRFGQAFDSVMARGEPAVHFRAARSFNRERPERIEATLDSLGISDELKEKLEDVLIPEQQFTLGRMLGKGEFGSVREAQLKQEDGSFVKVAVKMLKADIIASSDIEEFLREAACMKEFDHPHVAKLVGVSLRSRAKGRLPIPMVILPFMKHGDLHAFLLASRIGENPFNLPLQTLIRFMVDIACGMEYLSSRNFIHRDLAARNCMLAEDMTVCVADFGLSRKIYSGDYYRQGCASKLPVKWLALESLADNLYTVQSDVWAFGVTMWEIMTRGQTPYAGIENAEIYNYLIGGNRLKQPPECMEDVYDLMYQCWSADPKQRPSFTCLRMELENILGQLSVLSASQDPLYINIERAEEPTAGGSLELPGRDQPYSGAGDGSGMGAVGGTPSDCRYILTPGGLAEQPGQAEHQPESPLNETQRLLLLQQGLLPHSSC

Structure (SMILES)	IC50 (human MER (528-end))	IC50 (human AXL (473-end))	IC50 (human TYRO3 (455-end))
Cn1cc(-c2cnc(N)c(C(=O)N[C@H]3CCC[C@@H]3OCc3ccc(-c4ccc5c(c4)CCC5N4CCN(CC5COC(C)(C)O5)CC4)cc3)c2)cn1 (stereo partly drawn) [Example 79, 2-amino-N-[(1S,2S)-2-{[4-(1-{4-[(2,2-dimethyl-1,3-dioxolan-4-yl)methyl]piperazin-1-yl}-2,3-dihydro-1H-inden-5-yl)phenyl]methoxy}cyclopentyl]-5-(1-methyl-1H-pyrazol-4-yl)pyridine-3-carboxamide]	< 10 nM	< 10 nM	> 1000 nM
Cn1cc(-c2cnc(N)c(C(=O)N[C@H]3CCC[C@@H]3OCc3ccc(-c4ccc5c(c4)CCC5N4CCN(CC(O)CO)CC4)cc3)c2)cn1 (stereo partly drawn) [Example 81, 2-amino-N-{(1S,2S)-2-[(4-{1-[4-(2,3-dihydroxypropyl)piperazin-1-yl]-2,3-dihydro-1H-inden-5-yl}phenyl)methoxy]cyclopentyl}-5-(1-methyl-1H-pyrazol-4-yl)pyridine-3-carboxamide]	< 10 nM	< 10 nM	10 to 100 nM
CC1(C)CC(N2CCN(CCO)CC2)c2ccc(-c3ccc(CO[C@H]4CCC[C@@H]4NC(=O)c4cc(-c5ccc(F)nc5)cnc4N)cc3)cc21 (stereo partly drawn) [Example 84, 6-amino-6′-fluoro-N-{(1S,2S)-2-[(4-{1-[4-(2-hydroxyethyl)piperazin-1-yl]-3,3-dimethyl-2,3-dihydro-1H-inden-5-yl}phenyl)methoxy]cyclopentyl}[3,3′-bipyridine]-5-carboxamide]	< 10 nM	< 10 nM	10 to 100 nM
Nc1ncc(-c2ccc(F)nc2)cc1C(=O)N[C@H]1CCC[C@@H]1OCc1ccc(-c2ccc3c(c2)CC(F)(F)C3N2CCN(CCO)CC2)cc1 (stereo partly drawn) [Example 86, 6-amino-N-{(1S,2S)-2-[(4-{2,2-difluoro-1-[4-(2-hydroxyethyl)piperazin-1-yl]-2,3-dihydro-1H-inden-5-yl}phenyl)methoxy]cyclopentyl}-6′-fluoro[3,3′-bipyridine]-5-carboxamide]	< 10 nM	< 10 nM	100 to 1000 nM
Cn1ccc(-c2cc(C(=O)N[C@H]3CCC[C@@H]3OCc3ccc(-c4ccc5c(c4)CC(F)(F)C5N4CCN(CCO)CC4)cc3)cnc2N)cc1=O (stereo partly drawn) [Example 87, amino-N-{(1S,2S)-2-[(4-{2,2-difluoro-1-[4-(2-hydroxyethyl)piperazin-1-yl]-2,3-dihydro-1H-inden-5-yl}phenyl)methoxy]cyclopentyl}-1′-methyl-2′-oxo-1′,2′-dihydro[3,4′-bipyridine]-5-carboxamide]	< 10 nM	< 10 nM	100 to 1000 nM
Cn1ccc(-c2cnc(N)c(C(=O)N[C@H]3CCC[C@@H]3OCc3ccc(-c4ccc5c(c4)CC[C@@H]5N4CCN(CCO)CC4)cc3)c2)cc1=O [Example 92, 6-amino-N-{(1S,2S)-2-[(4-{(1S)-1-[4-(2-hydroxyethyl)piperazin-1-yl]-2,3-dihydro-1H-inden-5-yl}phenyl)methoxy]cyclopentyl}-1′-methyl-2′-oxo-1′,2′-dihydro[3,4′-bipyridine]-5-carboxamide]	< 10 nM	< 10 nM	10 to 100 nM
CN1CCN(C2CC(C)(C)c3cc(-c4ccc(CO[C@H]5CCC[C@@H]5NC(=O)c5cc(-c6ccc(F)nc6)cnc5N)cc4)ccc32)CC1 (stereo partly drawn) [Example 94, 6-amino-N-[(1S,2S)-2-({4-[3,3-dimethyl-1-(4-methylpiperazin-1-yl)-2,3-dihydro-1H-inden-5-yl]phenyl}methoxy)cyclopentyl]-6′-fluoro[3,3′-bipyridine]-5-carboxamide]	< 10 nM	< 10 nM	10 to 100 nM
Cn1cc(-c2cnc(N)c(C(=O)N[C@H]3CCC[C@@H]3OCc3ccc(-c4ccc5c(N6CCN(CCO)CC6)coc5c4)cc3)c2)cn1 [Example 95, 2-amino-N-{(1S,2S)-2-[(4-{3-[4-(2-hydroxyethyl)piperazin-1-yl]-1-benzofuran-6-yl}phenyl)methoxy]cyclopentyl}-5-(1-methyl-1H-pyrazol-4-yl)pyridine-3-carboxamide]	10 to 100 nM	100 to 1000 nM	> 1000 nM
Cn1cc(-c2cnc(N)c(C(=O)N[C@H]3CCC[C@@H]3OCc3ccc(-c4ccc5c(c4)C(C)(C)C[C@H]5N4CCN(CCO)CC4)cc3)c2)cn1 [Example 96, 2-amino-N-{(1S,2S)-2-[(4-{(1R)-1-[4-(2-hydroxyethyl)piperazin-1-yl]-3,3-dimethyl-2,3-dihydro-1H-inden-5-yl}phenyl)methoxy]cyclopentyl}-5-(1-methyl-1H-pyrazol-4-yl)pyridine-3-carboxamide]	10 to 100 nM	10 to 100 nM	> 1000 nM
CC1(C)C[C@@H](N2CCN(CCO)CC2)c2ccc(-c3ccc(CO[C@H]4CCC[C@@H]4NC(=O)c4cc(-c5ccc(F)nc5)cnc4N)cc3)cc21 [Example 97, 6-amino-6′-fluoro-N-{(1S,2S)-2-[(4-{(1R)-1-[4-(2-hydroxyethyl)piperazin-1-yl]-3,3-dimethyl-2,3-dihydro-1H-inden-5-yl}phenyl)methoxy]cyclopentyl}[3,3′-bipyridine]-5-carboxamide]	100 to 1000 nM	100 to 1000 nM	> 1000 nM
Cn1cc(-c2cnc(N)c(C(=O)N[C@H]3CCC[C@@H]3OCc3ccc(-c4ccc5c(c4)CC[C@@H]5N4CCN(CC(O)CO)CC4)cc3)c2)cn1 (stereo partly drawn) [Example 98, 2-amino-N-{(1S,2S)-2-[(4-{(1S)-1-[4-(2,3-dihydroxypropyl)piperazin-1-yl]-2,3-dihydro-1H-inden-5-yl}phenyl)methoxy]cyclopentyl}-5-(1-methyl-1H-pyrazol-4-yl)pyridine-3-carboxamide]	< 10 nM	< 10 nM	10 to 100 nM
Cn1ccc(-c2cnc(N)c(C(=O)N[C@H]3CCC[C@@H]3OCc3ccc(-c4ccc5c(c4)CC[C@@H]5N4CCN(CC(O)CO)CC4)cc3)c2)cc1=O (stereo partly drawn) [Example 99, 6-amino-N-{(1S,2S)-2-[(4-{(1S)-1-[4-(2,3-dihydroxypropyl)piperazin-1-yl]-2,3-dihydro-1H-inden-5-yl}phenyl)methoxy]cyclopentyl}-1′-methyl-2′-oxo-1′,2′-dihydro[3,4′-bipyridine]-5-carboxamide]	< 10 nM	< 10 nM	100 to 1000 nM
Cn1cc(-c2cnc(N)c(C(=O)N[C@H]3CCC[C@@H]3OCc3ccc(-c4ccc5c(c4)CC[C@H]5N4CCN(CC(O)CO)CC4)cc3)c2)cn1 (stereo partly drawn) [Example 101, 2-amino-N-{(1S,2S)-2-[(4-{(1R)-1-[4-(2,3-dihydroxypropyl)piperazin-1-yl]-2,3-dihydro-1H-inden-5-yl}phenyl)methoxy]cyclopentyl}-5-(1-methyl-1H-pyrazol-4-yl)pyridine-3-carboxamide]	10 to 100 nM	10 to 100 nM	> 1000 nM
CC1(C)C[C@H](N2CCN(CCO)CC2)c2ccc(-c3ccc(CO[C@H]4CCC[C@@H]4NC(=O)c4cc(-c5ccc(F)nc5)cnc4N)cc3)cc21 [Example 104, 6-amino-6′-fluoro-N-{(1S,2S)-2-[(4-{(1S)-1-[4-(2-hydroxyethyl)piperazin-1-yl]-3,3-dimethyl-2,3-dihydro-1H-inden-5-yl}phenyl)methoxy]cyclopentyl}[3,3′-bipyridine]-5-carboxamide]	< 10 nM	< 10 nM	< 10 nM
Cn1cc(-c2cnc(N)c(C(=O)N[C@H]3CCC[C@@H]3OCc3ccc(-c4ccc5c(c4)CC(C)(C)C5N4CCN(CCO)CC4)cc3)c2)cn1 (stereo partly drawn) [Example 105, 2-amino-N-{(1S,2S)-2-[(4-{1-[4-(2-hydroxyethyl)piperazin-1-yl]-2,2-dimethyl-2,3-dihydro-1H-inden-5-yl}phenyl)methoxy]cyclopentyl}-5-(1-methyl-1H-pyrazol-4-yl)pyridine-3-carboxamide]	< 10 nM	< 10 nM	100 to 1000 nM
